Measurements taken from patent US5436246A, “Serotonin receptor agents” (priority 1993, dated 1995).
Counter-ions that a name gives are not always drawn. Like-named read-outs stand apart in the source and are kept apart here.

Key:
5HT1A receptor = target: T1, 5HT1A receptor (Rattus norvegicus, UniProt P19327); assay: 5HT1A receptor binding affinity (procedure of Gozlan et al.)
T1 sequence (P19327 1-422): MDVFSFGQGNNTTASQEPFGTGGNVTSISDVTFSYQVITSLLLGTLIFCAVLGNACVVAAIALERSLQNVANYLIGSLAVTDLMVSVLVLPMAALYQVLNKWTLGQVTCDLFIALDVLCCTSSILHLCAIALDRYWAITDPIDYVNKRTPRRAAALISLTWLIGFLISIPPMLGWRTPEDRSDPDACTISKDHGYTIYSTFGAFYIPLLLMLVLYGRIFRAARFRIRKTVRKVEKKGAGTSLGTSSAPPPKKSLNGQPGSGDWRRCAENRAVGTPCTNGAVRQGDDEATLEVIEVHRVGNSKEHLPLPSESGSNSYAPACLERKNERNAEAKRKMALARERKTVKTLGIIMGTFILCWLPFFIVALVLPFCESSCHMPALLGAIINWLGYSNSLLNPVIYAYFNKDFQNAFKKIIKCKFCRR
Experimental: In the following examples, the compounds binding affinity for both the 5HT1A receptor and 5HT1D receptors is reported. The compounds affinity for the 5HT1D site was determined by the binding procedure of Peroutka et al as reported in European Journal of Pharmacology, Vol. 163 at pages 133-166 (1989). The compounds affinity for the 5HT1A receptor was determined by the procedure of Gozlan et al., as reported in Nature, Volume 305, at pages 140-142 (1983). Where multiple determinations of the binding affinity have been performed, the average is given followed by the number of determinations in parentheses. Also, the PA2 value for the saphenous vein preparation as described in this application is given, followed by the intrinsic (agonist) activity in parentheses, expressed as a percentage. [drawing 10] […]

5HT1D receptor = target: T2, 5HT1D receptor (Bos taurus, UniProt F1MGM3); assay: 5HT1D receptor binding affinity (procedure of Peroutka et al.)
T2 construct: from tissue
Experimental: The compounds affinity for the 5HT1D site was determined by the binding procedure of Peroutka et al as reported in European Journal of Pharmacology, Vol. 163 at pages 133-166 (1989). […] Where multiple determinations of the binding affinity have been performed, the average is given followed by the number of determinations in parentheses.

5-HT1D receptors = 5-HT1D receptors (Canis lupus familiaris, UniProt P79250); design: species or system dog (canine)
Experimental: In the following examples, the compounds binding affinity for both the 5HT1A receptor and 5HT1D receptors is reported. The compounds affinity for the 5HT1D site was determined by the binding procedure of Peroutka et al as reported in European Journal of Pharmacology, Vol. 163 at pages 133-166 (1989). The compounds affinity for the 5HT1A receptor was determined by the procedure of Gozlan et al., as reported in Nature, Volume 305, at pages 140-142 (1983). Where multiple determinations of the binding affinity have been performed, the average is given followed by the number of determinations in parentheses. Also, the PA2 value for the saphenous vein preparation as described in this application is given, followed by the intrinsic (agonist) activity in parentheses, expressed as a percentage. [drawing 10]
We have used canine saphenous vein for studying 5-HT1D receptors which is similar, although not totally identical, to human coronary 5-HT1D receptors (see Humphrey, P. P. A., Feniuk, W., Perren, M. J., Connor, H. E., Oxford, A. W., Coates, I. H. and Butina, D.: GR43175, a selective agonist for the 5-HT1 -like receptor in dog isolated saphenous vein, Br. J. Pharmacol. 94:1123-1132, 1988; Kaumann, A. J.: Human heart 5-HT receptors, Second international symposium on serotonin, from cell biology to pharmacology and therapeutics, Houston, Sep. 15-18, 1992).
Mongrel dogs weighing 12-18 kg were killed by an intravenous injection of an overdose of sodium pentobarbitol. Saphenous veins were isolated, removed, cleaned of surrounding connective tissue, and cut into helical strips in a dish containing Krebs-Henseleit solution with the following composition in mM: NaCl, 110.0; KCl, 4.8; CaCl2, 2.5; KH2 PO4, 1.2; EDTA(NaEDTA), 0.027; and was constantly bubbled with 95% O2 -5% CO2. Unless otherwise specified, the endothelium of the […] was removed by rubbing with a metal rod. The intactness or absence of functional endothelium was checked by the presence or absence of a relaxant effect of acetycholine (10^-5 M) in phenylephrine-contracted tissues (see Furchgott, R. F. and Zawadzki, J. V.: The obligatory role of endothelial cells in the relaxtion of arterial smooth muscle by acetycholine, Nature 288:373-376, 1980). Each muscle strip (3×30 mm) was set up in a tissue bath at 37° C. and loaded with 2 gram tension. Contractility of the tissues was measured isometrically with a Grass FT03 force-displacement transducer and recorded on a Strip chart recorder. The tissues were allowed to stabilize for 2 hours before the experiment was started, during which time they were washed repeatedly. Tissues were contracted with 3.162×10^-6 M phenylephrine and 40 mM KCl, which produced 60-70% of their maximum contractile responses, to condition the tissue. 5-HT dose response experiment was conducted. Test compounds were then incubated with the tissue before a second 5-HT dose response experiment was performed. Data are expressed as the pA2 value, the negative logarithm of the molar concentration of antagonist which produced a 2 fold shift in ED50 values of 5-HT dose response curves (see Van Rossum, J. M.: Cumulative dose-response curve: Technique for the making of dose-response curves in isolated organs and the evaluation of drug parameters, Arch. Int. Pharmacodyn. Ther. 143:299-330, 1963).

[1] = average of multiple determinations where number in parentheses is given, read-out: IC50 (5HT1A Binding Affinity)
[2] = average of multiple determinations where number in parentheses is given, read-out: IC50 (5HT1D Binding Affinity)

T2 sequence (F1MGM3 1-403): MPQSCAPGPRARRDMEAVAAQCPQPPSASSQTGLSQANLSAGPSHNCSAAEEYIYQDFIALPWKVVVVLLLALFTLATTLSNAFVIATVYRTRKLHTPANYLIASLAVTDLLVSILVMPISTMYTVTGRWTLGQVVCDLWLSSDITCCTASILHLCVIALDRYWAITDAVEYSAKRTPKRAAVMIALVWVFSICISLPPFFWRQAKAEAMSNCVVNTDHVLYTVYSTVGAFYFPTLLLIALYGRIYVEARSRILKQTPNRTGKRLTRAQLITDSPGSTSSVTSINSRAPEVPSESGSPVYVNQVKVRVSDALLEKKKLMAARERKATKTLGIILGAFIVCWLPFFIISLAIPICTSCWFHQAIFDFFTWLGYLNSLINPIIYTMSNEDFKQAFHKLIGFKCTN
Sequence of 5-HT1D receptors (P79250 whole entry): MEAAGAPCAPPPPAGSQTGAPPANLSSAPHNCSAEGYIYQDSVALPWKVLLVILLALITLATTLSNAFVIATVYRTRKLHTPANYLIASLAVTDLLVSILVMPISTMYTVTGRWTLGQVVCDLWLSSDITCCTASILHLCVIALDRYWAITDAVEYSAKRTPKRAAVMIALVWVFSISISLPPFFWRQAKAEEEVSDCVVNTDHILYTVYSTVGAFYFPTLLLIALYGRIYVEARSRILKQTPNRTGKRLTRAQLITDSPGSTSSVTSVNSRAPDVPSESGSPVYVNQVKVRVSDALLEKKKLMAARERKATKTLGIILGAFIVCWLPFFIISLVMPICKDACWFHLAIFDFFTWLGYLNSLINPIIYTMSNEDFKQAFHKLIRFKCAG

IC50 (5HT1A receptor; [1]) | IC50 (5HT1D receptor; [2]) | SMILES | IC50 (5HT1A receptor) | IC50 (5HT1D receptor) | further results
> 1000 nM | > 1000 nM | CCOC(=O)c1cc2c(N3CCN(Cc4ccccc4)CC3)cccc2s1 [Example 1, ethyl-4-[4-(phenylmethyl)-1-piperazinyl]benzo[b]thiophene-2-carboxylate monohydrochloride] |  |  | 
35 nM | 760 nM | OCc1cc2c(N3CCN(Cc4ccccc4)CC3)cccc2s1 [Example 2, 4-[4-(phenylmethyl)-1-piperazinyl]-benzo[b]thiophene-2-methanol monohydrochloride] |  |  | 
180 nM | > 1000 nM | N#Cc1cc2c(N3CCN(Cc4ccccc4)CC3)cccc2s1 [Example 3, 4-[4-(phenylmethyl)-1-piperazinyl]-benzo[b]thiophene-2-nitrile monohydrochloride] |  |  | 
1.6 nM | 52 nM | NC(=O)c1cc2c(N3CCN(Cc4ccccc4)CC3)cccc2s1 [Example 4, 4-[4-(phenylmethyl)-1-piperazinyl]-benzo[b]thiophene-2-carboxamide monohydrochloride] |  |  | 
 |  | CCOC(=O)c1cc2c(N3CCNCC3)cccc2s1 [Example 5, ethyl 4-(1-piperazinyl)-benzo[b]thiophene-2-carboxylate monohydrochloride] | 89 nM | 47 nM | 
37 nM | 108 nM | CCOC(=O)c1cc2c(N3CCN(CCc4ccccc4)CC3)cccc2s1 [Example 6, ethyl-4-[4-(2-phenylethyl)-1-piperazinyl]-benzo[b]thiophene-2-carboxylate monohydrochloride] |  |  | 
 |  | N#Cc1cc2c(N3CCN(CCc4ccccc4)CC3)cccc2s1 [Example 8, 4-[4-(2-phenylethy-1-piperazinyl]-benzo[b]thiophene-2-nitrilemonohydrochloride] | 4 nM | 18 nM | 
239 nM | 551 nM | CCOC(=O)c1cc2c(N3CCN(CCCc4ccccc4)CC3)cccc2s1 [Example 14, ethyl-4-[4-(3-phenylpropyl)-1-piperazinyl]-benzo[b]thiophene-2-carboxylatemonohydrochloride] |  |  | 
21 nM | 173 nM | N#Cc1cc2c(N3CCN(CCCc4ccccc4)CC3)cccc2s1 [Example 16, 4-[4-(3-phenylpropyl)-1-piperazinyl]-benzo[b]thiophene-2-nitrile monohydrochloride] |  |  | 
 |  | OCc1cc2c(N3CCN(CCc4ccc(Cl)cc4)CC3)cccc2s1 [Example 19, 4-[4-[2-(4-chlorophenyl)ethyl]-1-piperazinyl]-benzo[b]thiophene-2-methanolmonohydrochloride] | 2 nM | 10 nM | 
 |  | OCc1cc2c(N3CCN(CCc4ccc(F)cc4)CC3)cccc2s1 [Example 23, 4-[4-[2-(4-fluorophenyl)ethyl]-1-piperazinyl]-benzo[b]thiophene-2-methanolmonohydrochloride] | 3 nM | 3 nM | 
 |  | NC(=O)c1cc2c(N3CCN(CCc4ccc(F)cc4)CC3)cccc2s1 [Example 25, 4-[4-[2-(4-fluorophenyl)ethyl]-piperazinyl]-benzo[b]-thiophene-2-carboxamide monohydrochloride] | 0.8 nM | 6 nM | 
 |  | Cc1ccc(CCN2CCN(c3cccc4sc(CO)cc34)CC2)cc1 [Example 27, 4-[4-[2-(4-methylphenyl)-ethyl]-1-piperazinyl]-benzo[b]thiophene-2-methanol monohydrochloride] | 3 nM | 1 nM | 
 |  | Cc1ccc(CCN2CCN(c3cccc4sc(C#N)cc34)CC2)cc1 [Example 28, 4-[4-[2-(4-methylphenyl)ethyl]-1-piperazinyl]-benzo[b]thiophene-2-nitrile monohydrochloride] | 4 nM | 56 nM | 
74 nM | 73 nM | CCOC(=O)c1cc2c(N3CCN(CCc4ccc(OC)cc4)CC3)cccc2s1 [Example 30, ethyl-4-[4-[2-(4-methoxyphenyl)ethyl]-1-pierazinyl]-benzo-[b]thiophene-2-carboxylate monohydrochloride] |  |  | 
 |  | COc1ccc(CCN2CCN(c3cccc4sc(CO)cc34)CC2)cc1 [Example 31, 4-[4-[2-(4-methoxyphenyl)ethyl]-1-piperazinyl]-benzo[b]thiophene-2-methanol monohydrochloride] | 1 nM | 2 nM | 
 |  | Cc1c(CO)sc2cccc(N3CCN(CCc4ccccc4)CC3)c12 [Example 33, 4-[4-(2,phenylethyl)-1-piperazinyl]-benzo[b]-thiophene-3-methyl-2-methanol monhydrochloride 0.5 hydrate] | 9 nM | 31 nM | 
34 nM | 66 nM | CCCN1CCN(c2cccc3sc(CO)cc23)CC1 [Example 35, 4-[(4-propyl)-1-piperazinyl]benzo[b]thiophene-2-methanol hydrochloride] |  |  | 
 |  | CN1CCN(c2cccc3sc(CO)cc23)CC1 [Example 39, 4-[4-methyl-1-piperazinyl]-benzo[b]thiophene-2-methanol hydrochloride] |  | 16 nM | 
 |  | CC(O)c1cc2c(N3CCN(CCc4ccccc4)CC3)cccc2s1 (centres unmarked) [Example 43, 1-[4-(4-phenethyl-piperazin-1-yl)-benzo[b]thiophen-2-yl]ethanol hydrochloride] | 0.5 nM | 3 nM | 
 |  | COCc1cc2c(N3CCNCC3)cccc2s1 [Example 45, 4-(1-piperazinyl)-benzo[b]thiophene-2-methoxymethyl hydrochloride hemihydrate] |  | 4 nM | 
 |  | CNC(=O)c1cc2c(N3CCNCC3)cccc2s1 [Example 49, 4-(1-piperazinyl)benzol[b]-thiophene-2-(N-methyl)carboxamide dihydrochloride hydrate] |  | 8.4 nM | 
1 nM | 6 nM | O=[N+]([O-])c1ccc(CCN2CCN(c3cccc4sc(CO)cc34)CC2)cc1 [Example 50, 4-[4-[2-(4-nitrophenyl)ethyl]-1-piperazinyl]-benzo[b]thiophene-2-methanol hydrochloride] |  |  | 
 |  | NCc1cc2c(N3CCN(CCc4ccccc4)CC3)cccc2s1 [Example 55, 4-[4-(2-phenylethyl)-1-piperazinyl]-benzo[b]thiophene-2-methanamine dihydrochloride] | 3 nM | 12 nM | 
 |  | OCC=Cc1cc2c(N3CCN(CCc4ccccc4)CC3)cccc2s1 [Example 59, 3-[4-(4-phenethyl-piperazin-1-yl)-benzo[b]thiophen-2-yl]-prop-2-en-1-ol hydrochloride] |  |  | Kb (5-HT1D receptors): 0.55 nM; Emax (5-HT1D receptors; dog, read-out: intrinsic (agonist) activity, saphenous vein preparation): 0%
